In patent US20060194293A1, “Rb1 gene induced protein (rb1cc1) and gene” (Tokuhiro CHANO, priority 2003, published 2006):
“Also recorded” adds a separate entry of the source.

What was measured:
Type in all cases: cell-based, human
U-2 OS cells = assay: Cell proliferation under doxorubicin treatment, parental cells; conditions: parental U-2 OS cells
Method: (§1) The effect on cell proliferation in the presence of 450 ng/mL of the anticancer agent doxorubicin was examined.

U-2/Neo8 cells = assay: Cell proliferation under doxorubicin treatment, control gene-introduced cells; conditions: U-2/Neo8 control cells
Method: as §1

U-2 OS/DX580 cells = assay: Cell proliferation under doxorubicin treatment, MDR variant cells; conditions: U-2 OS/DX580 MDR variants, 450 ng/mL doxorubicin
Method: as §1

U-2/DOXO 35 cells = assay: Cell proliferation under doxorubicin treatment, MDR1 gene-introduced cells; conditions: U-2/DOXO 35 (MDR1 gene introduced), 450 ng/mL doxorubicin
Method: as §1

RB1CC1 gene [1] = assay: Northern blot of RB1CC1 gene expression after doxorubicin, parental U-2 OS cells; conditions: doxorubicin treatment, over time
Method: (§2) Expression levels of RB1CC1 gene and MDR1 gene in parental U2 OS cells and several kinds of MDR-variant cells were analyzed by Northern blotting. A probe hybridizing between nucleotide numbers 4190 and 4654 of the RB1CC1 gene sequence was used as a probe for analysis of RB1CC1 gene, and a probe hybridizing between nucleotide numbers 834 and 1119 of MDR1 gene was used for MDR1 gene. Probes were used after labeling with α-32P-dCTP in which phosphorus at an alpha position of […] was substituted with a radioactive isotope. Glyceraldehyde-3-phosphate dehydrogenase (GAPDH) was used as the indicator of mRNA expression.
(§3) mRNA expression levels of cells that were obtained over time in the above-mentioned experiment were analyzed. Analysis was conducted for the novel gene RB1CC1 gene of the present invention, the RB1 gene and the MDR1 gene, respectively, in the same manner as Example 3 with the exception that expression levels of the RB1 gene were detected using a probe hybridizing to the site at nucleotides 336 to 675 of the nucleotide sequence of human RB1 mRNA. […] In contrast, in MDR variants of U-2 OS cells (U-2 OS/DX580) and U-2 OS cells introduced with MDR1 gene (U-2/DOXO 35), expression level of RB1CC1 gene was not inhibited by treatment with doxorubicin, and expression of RB1CC1 gene increased. […]

RB1CC1 gene [2] = assay: Northern blot of RB1CC1 gene expression after doxorubicin, U-2/Neo8 cells; conditions: U-2/Neo8 control cells, doxorubicin treatment, over time
Method: as §2, §3

RB1CC1 gene [3] = assay: Northern blot of RB1CC1 gene expression after doxorubicin, U-2 OS/DX580 cells; conditions: U-2 OS/DX580 MDR variants, doxorubicin treatment
Method: as §2, §3

RB1CC1 gene [4] = assay: Northern blot of RB1CC1 gene expression after doxorubicin, U-2/DOXO 35 cells; conditions: U-2/DOXO 35 (MDR1 gene introduced), doxorubicin treatment
Method: as §2, §3

COc1cccc2c1C(=O)c1c(O)c3c(c(O)c1C2=O)C[C@@](O)(C(=O)CO)C[C@@H]3O[C@H]1C[C@H](N)[C@H](O)[C@H](C)O1 [doxorubicin]
effect on cell proliferation (U-2 OS cells; 450 ng/mL doxorubicin): suppressed | cell death (U-2 OS cells; doxorubicin treatment): induced cell death | effect on cell proliferation (U-2/Neo8 cells; 450 ng/mL doxorubicin): suppressed | cell death (U-2/Neo8 cells; doxorubicin treatment): induced cell death | effect on cell proliferation (U-2 OS/DX580 cells): did not exhibit an inhibitory effect; also recorded: had no effect | effect on cell proliferation (U-2/DOXO 35 cells): had no effect | expression of the RB1CC1 gene (mRNA) (RB1CC1 gene [1]): lowered expression; also recorded: decreased over time | expression of the RB1CC1 gene (mRNA) (RB1CC1 gene [2]): lowered expression; also recorded: decreased over time | expression of the RB1CC1 gene (mRNA) (RB1CC1 gene [3]): did not exhibit an inhibitory effect; also recorded: not inhibited | expression of the RB1CC1 gene (mRNA) (RB1CC1 gene [4]): increased; also recorded: not inhibited
